Experimental findings from ChEMBL document CHEMBL1201862, “PubChem BioAssay data set” (2004) are described below.

The target in series [1] is T1, Intestinal-type alkaline phosphatase (Homo sapiens, UniProt P09923). Nature of the series: human IAP activators, dose response, biochemical, luminescent, uHTS hits, set 2 (AID 488817).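 Also: potency of activators that raise enzyme activity.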 The format is functional.
The target in series [2] is Intestinal-type alkaline phosphatase (Mus musculus, UniProt P24822). The series is described as follows: PubChem AID 488874. It counts as functional.
Intestinal-type alkaline phosphatase (Mus musculus, UniProt P24822), sequence (P24822 whole entry): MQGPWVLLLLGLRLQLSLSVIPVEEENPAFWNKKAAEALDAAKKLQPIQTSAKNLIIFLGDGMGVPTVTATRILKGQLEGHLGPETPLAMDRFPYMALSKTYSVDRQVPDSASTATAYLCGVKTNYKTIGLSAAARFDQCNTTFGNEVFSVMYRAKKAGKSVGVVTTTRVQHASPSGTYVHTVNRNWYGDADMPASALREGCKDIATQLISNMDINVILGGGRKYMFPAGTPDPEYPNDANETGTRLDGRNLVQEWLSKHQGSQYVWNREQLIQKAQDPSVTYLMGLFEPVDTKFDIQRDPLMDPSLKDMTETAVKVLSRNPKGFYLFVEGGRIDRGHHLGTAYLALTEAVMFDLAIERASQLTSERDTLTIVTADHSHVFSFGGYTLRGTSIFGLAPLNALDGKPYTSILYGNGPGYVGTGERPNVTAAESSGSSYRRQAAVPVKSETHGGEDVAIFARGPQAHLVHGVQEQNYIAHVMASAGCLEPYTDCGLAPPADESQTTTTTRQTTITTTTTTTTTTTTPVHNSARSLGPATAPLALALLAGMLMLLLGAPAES
Series [3] addresses T2, Alkaline phosphatase, tissue-nonspecific isozyme (Homo sapiens, UniProt P05186).
T2 sequence (P05186 whole entry): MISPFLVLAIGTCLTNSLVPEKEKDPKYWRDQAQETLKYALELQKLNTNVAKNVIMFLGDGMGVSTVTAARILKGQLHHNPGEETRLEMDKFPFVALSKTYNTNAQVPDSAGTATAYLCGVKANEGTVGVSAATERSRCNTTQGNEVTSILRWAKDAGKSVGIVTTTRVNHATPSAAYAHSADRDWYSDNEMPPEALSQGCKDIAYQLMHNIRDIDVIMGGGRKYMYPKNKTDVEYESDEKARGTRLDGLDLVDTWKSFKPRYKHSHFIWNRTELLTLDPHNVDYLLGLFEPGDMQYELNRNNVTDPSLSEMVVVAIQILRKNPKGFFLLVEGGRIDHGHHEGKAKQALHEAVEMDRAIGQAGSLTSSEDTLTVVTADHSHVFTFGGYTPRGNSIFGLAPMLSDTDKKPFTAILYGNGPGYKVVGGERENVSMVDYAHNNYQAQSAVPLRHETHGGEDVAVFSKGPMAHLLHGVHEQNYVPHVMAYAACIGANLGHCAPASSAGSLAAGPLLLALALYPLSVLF
Nature of the series: TNAP enzyme activators, dose response, selectivity assay for human IAP activator project, biochemical, TNAP isozyme, human IAP uHTS hits (AID 488886).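 Also: potency of compounds raising TNAP activity as a selectivity check on IAP activators.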 It counts as functional.

Series [4] addresses T1, Intestinal-type alkaline phosphatase. Nature of the series: human intestinal alkaline phosphatase activators, dose response, biochemical, luminescence, uHTS hits (AID 463120). It counts as functional.
The target of the next series is Tumor necrosis factor (Homo sapiens, UniProt P01375). The series is described as follows: TNFa-triggered NF-kB activation inhibitors, SAR follow-up, cell-based, revised (AID 2337). It counts as functional.
Tumor necrosis factor, sequence (P01375 whole entry): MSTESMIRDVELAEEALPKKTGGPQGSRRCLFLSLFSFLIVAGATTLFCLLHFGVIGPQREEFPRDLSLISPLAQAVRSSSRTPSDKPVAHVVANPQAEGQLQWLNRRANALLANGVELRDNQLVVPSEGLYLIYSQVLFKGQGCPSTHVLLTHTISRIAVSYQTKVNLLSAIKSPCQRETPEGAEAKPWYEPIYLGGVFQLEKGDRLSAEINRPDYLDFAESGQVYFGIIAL
The next series concerns HEK293. Nature of the series: cells. The following applies: Homo sapiens.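 Also: cells exposed to compound for 14 hours overnight before viability readout.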
Series [5] can be described thus: M. tuberculosis H37Rv growth inhibitors, H37Rv strain (AID 1626). It counts as functional.
The target in series [6] is Type-1 angiotensin II receptor (Homo sapiens, UniProt P30556). The series is described as follows: AT1 receptor antagonists, dose response, selectivity assay for APJ receptor antagonist project, cell-based, uHTS hits (AID 463214).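 Also: antagonist potency against angiotensin II stimulated AT1 response.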 The format is functional.
Type-1 angiotensin II receptor, sequence (P30556 whole entry): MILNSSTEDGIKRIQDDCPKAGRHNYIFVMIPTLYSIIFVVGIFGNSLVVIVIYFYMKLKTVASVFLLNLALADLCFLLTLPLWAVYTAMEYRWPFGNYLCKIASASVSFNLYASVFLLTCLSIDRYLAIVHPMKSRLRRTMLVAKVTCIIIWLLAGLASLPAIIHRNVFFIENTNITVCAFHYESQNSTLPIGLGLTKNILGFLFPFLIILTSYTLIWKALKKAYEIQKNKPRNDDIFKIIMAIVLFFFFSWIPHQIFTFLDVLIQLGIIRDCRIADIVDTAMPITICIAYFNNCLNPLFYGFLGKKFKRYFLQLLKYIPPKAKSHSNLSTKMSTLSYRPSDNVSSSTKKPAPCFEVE
In another series the target is Beta-galactosidase (Escherichia coli, UniProt Q8VNN2). Nature of the series: PubChem AID 485352. It counts as functional.
Beta-galactosidase, sequence (Q8VNN2 whole entry): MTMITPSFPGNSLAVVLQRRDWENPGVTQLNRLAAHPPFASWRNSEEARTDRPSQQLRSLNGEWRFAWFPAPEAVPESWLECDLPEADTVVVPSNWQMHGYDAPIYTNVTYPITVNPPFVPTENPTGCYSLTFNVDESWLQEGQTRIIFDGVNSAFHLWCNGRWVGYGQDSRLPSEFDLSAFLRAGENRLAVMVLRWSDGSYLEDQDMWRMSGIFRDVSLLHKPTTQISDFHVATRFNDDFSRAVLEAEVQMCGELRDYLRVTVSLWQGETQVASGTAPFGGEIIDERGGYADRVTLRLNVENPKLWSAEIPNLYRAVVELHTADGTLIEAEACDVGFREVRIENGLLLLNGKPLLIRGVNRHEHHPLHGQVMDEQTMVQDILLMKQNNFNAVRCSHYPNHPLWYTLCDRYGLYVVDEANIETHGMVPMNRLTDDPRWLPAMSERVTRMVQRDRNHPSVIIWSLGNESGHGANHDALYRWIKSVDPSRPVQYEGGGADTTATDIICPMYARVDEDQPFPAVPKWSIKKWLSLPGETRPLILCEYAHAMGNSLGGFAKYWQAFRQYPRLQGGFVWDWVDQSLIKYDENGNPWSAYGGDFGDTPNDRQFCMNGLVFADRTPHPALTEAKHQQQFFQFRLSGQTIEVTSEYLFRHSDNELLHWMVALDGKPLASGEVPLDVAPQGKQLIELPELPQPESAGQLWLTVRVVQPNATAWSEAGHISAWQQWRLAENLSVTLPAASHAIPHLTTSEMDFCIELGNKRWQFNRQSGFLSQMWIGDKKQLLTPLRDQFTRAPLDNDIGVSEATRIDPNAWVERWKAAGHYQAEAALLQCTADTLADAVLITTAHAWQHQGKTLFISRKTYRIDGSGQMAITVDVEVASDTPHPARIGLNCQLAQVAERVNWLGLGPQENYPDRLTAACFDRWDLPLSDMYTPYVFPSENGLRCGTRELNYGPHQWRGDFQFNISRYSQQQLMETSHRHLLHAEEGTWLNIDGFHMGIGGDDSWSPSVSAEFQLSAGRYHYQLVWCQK
Series [7] relates to A-375. Nature of the series: MITF: Counter assay: A375 proliferation Measured in Cell-Based System Using Plate Reader - 2084-03_Inhibitor_Dose_DryPowder_Activity. [Related pubchem assays (depositor defined):AID488944]. The format is functional. The following applies: Homo sapiens.
Series [8] has as its system A-375. The series is described as follows: A375 melanoma cell viability reduction, dose response, counter-screen for MITF modulator project, cherry-pick samples, set 2 (AID 540335). It counts as functional, cell-based. Particulars: Homo sapiens.
Another series has as its target Cytochrome P450 3A4 (Homo sapiens, UniProt P08684).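 Also: CYP3A4 tested as one member of a cytochrome P450 panel screen.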
Series [9] can be described thus: Artemis endonuclease inhibitor potency, dose response, biochemical, fluorescence intensity (AID 720701).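 Also: Artemis endonuclease enzyme.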 It counts as functional.
The target of the next series is T3, Cytochrome P450 1A2 (Homo sapiens, UniProt P05177).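 Also: PubChem cytochrome P450 panel assay, CYP1A2 panel member.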
T3 sequence (P05177 whole entry): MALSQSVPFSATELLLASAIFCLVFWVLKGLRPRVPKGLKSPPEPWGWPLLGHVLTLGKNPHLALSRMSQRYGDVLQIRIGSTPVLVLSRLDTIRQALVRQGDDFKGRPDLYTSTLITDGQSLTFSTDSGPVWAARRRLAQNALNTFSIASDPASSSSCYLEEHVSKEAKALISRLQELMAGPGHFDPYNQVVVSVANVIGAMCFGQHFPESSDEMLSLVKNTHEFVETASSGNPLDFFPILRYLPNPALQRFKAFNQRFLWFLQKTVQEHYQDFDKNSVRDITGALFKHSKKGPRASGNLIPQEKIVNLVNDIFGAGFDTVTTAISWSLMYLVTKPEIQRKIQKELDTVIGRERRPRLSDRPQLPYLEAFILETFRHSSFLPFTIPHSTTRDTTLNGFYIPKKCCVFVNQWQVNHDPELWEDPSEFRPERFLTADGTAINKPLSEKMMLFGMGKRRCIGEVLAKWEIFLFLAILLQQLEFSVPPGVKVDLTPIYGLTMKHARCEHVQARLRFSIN

A short description of series [10]: cytotoxicity toward NIH3T3 fibroblasts, dose response, counter-screen, cell-based, ATP luminescence, mouse fibroblasts (AID 2010).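 Also: cells exposed to compound for about 90 hours before reading.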 The format is functional. Background: A counterscreen serves to expose hits that act by an unwanted route or on another target.
Series [11] concerns the target T4, Heat shock factor protein 1 (Mus musculus, UniProt P38532).
T4 sequence (P38532 whole entry): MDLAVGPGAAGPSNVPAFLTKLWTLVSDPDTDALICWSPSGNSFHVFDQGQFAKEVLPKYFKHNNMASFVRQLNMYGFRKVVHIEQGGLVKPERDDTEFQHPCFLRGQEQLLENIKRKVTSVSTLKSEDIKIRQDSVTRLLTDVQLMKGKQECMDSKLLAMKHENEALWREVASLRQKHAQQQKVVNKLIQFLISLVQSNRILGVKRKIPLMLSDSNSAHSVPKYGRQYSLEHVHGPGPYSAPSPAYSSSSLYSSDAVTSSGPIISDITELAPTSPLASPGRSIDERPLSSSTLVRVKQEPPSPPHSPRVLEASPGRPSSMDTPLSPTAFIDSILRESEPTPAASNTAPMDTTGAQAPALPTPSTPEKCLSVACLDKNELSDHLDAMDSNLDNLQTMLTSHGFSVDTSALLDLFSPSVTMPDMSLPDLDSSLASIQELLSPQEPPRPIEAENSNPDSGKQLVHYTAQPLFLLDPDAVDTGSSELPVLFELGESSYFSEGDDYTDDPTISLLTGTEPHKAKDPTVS
The series is described as follows: HSF1 potentiators in luciferase reporter cells, confirmation, cell-based, NIH3T3, luminescence, dose retest (AID 435004).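 Also: stress induced by proteasome inhibitor MG132 added 30 min after compound; luciferase reporter driven by HSF1 response element in NIH3T3 cells; actives raise luminescence as potentiators of the MG132 stress response.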 It counts as functional. In general terms: In a reporter assay the amount or activity of a reporter protein is the signal.

Series [12] is described as follows: HepG2 cell cytotoxicity, dose response, cytotoxicity control, ATP luminescence, cherry-pick, activator set 2 (AID 1053143). It counts as functional, cell-based.
Series [13] is described as follows: inhibitors of intracellular T. cruzi replication, confirmation, NIH3T3 host cells, beta-gal luminescence (AID 2044).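 Also: intracellular parasites grown in NIH/3T3 mouse fibroblasts as host cells; luminescent beta-galactosidase reporter signal from transgenic T. cruzi replicating inside host cells; inhibitors lower the luminescence signal.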 The format is functional, cell-based.
Series [14] addresses T5, Microphthalmia-associated transcription factor (Homo sapiens, UniProt O75030).
T5 sequence (O75030 whole entry): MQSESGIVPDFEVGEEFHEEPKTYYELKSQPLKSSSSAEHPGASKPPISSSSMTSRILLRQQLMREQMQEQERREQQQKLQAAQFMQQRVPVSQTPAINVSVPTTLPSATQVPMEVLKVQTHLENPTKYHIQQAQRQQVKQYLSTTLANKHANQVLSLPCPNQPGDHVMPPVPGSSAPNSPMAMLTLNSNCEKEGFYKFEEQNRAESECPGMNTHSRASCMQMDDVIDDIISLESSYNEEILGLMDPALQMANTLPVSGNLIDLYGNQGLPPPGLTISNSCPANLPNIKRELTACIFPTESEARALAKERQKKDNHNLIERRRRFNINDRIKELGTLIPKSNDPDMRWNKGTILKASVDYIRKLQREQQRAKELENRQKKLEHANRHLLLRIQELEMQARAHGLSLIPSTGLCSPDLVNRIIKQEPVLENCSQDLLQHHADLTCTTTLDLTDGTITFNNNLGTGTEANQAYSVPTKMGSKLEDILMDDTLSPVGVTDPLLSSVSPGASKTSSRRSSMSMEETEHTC
The series is described as follows: TRPM1 promoter luciferase signal decrease, dose response, MITF inhibitor project, cell-based, SK-MEL-5, cherry-picked, set 3 (AID 493073).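 Also: SK-MEL-5 melanoma cells with luciferase driven by the MITF target TRPM1 promoter.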 It counts as functional.

A short description of series [15]: growth suppression of beta-catenin-knockout colon cells, dose response, cell-based, HCT116, human colon tumor (AID 1045).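 Also: HCT116 colon tumor cells with beta catenin knocked out; cells exposed to compound for 60 hours.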 The format is functional.
Another series concerns INS1. The series is described as follows: beta cell apoptosis inhibitors, cytokine rescue, dose response, luminescence, retest (AID 449756).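 Also: cell death triggered by IL-1 beta plus TNF-alpha plus IFN-gamma mixture; protective hits raise ATP signal compared with cytokine alone wells.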 The following applies: Rattus norvegicus, INS1. The format is functional, cell-based.
Series [16] in a line: HepG2 cell cytotoxicity, dose response, cytotoxicity control for non-replicating M. tuberculosis project (AID 489018). Particulars: Mycobacterium tuberculosis. It counts as functional.
The nature of series [17]: Luminescence Cell-Based Dose Retest to Confirm Inhibitors of Cancer Stem Cells. [Related pubchem assays (depositor defined):AID2717, AID2721]. It counts as functional. The following applies: Homo sapiens.
The nature of series [18]: Vero E6 cell cytotoxicity, dose response, cytotoxicity control for non-replicating M. tuberculosis project, secondary assay (AID 492998). It counts as functional, VeroE6. Particulars: Vero C1008.
Series [19] can be described thus: THP-1 cell cytotoxicity, dose response, cytotoxicity control for non-replicating M. tuberculosis project (AID 489025). The format is functional.
A short description of series [20]: growth suppression of PTEN-null colon cells, dose response, cell-based, HCT116 PTEN knockout (AID 1047).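 Also: HCT116 colon tumor cells with PTEN knocked out; cells exposed to compound for 60 hours before readout; potency for loss of cell viability measured by luminescence.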 The format is functional.
A further series in a line: cells. It counts as functional.
For series [21], the target named is T6, Ubiquitin-conjugating enzyme E2 N (Homo sapiens, UniProt P61088).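 Also: Dose-response confirmation in a TR-FRET assay detecting UBC13-driven polyubiquitin chain formation, inhibition measured.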
T6 sequence (P61088 whole entry): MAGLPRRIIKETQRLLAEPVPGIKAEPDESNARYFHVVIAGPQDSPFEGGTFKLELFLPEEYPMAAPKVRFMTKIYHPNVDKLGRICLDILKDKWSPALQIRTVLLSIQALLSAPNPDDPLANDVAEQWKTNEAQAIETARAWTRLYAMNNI
It counts as functional.

Each structure is given as a SMILES string. Calls of active or inactive are those of the source.

T1 sequence (P09923 whole entry): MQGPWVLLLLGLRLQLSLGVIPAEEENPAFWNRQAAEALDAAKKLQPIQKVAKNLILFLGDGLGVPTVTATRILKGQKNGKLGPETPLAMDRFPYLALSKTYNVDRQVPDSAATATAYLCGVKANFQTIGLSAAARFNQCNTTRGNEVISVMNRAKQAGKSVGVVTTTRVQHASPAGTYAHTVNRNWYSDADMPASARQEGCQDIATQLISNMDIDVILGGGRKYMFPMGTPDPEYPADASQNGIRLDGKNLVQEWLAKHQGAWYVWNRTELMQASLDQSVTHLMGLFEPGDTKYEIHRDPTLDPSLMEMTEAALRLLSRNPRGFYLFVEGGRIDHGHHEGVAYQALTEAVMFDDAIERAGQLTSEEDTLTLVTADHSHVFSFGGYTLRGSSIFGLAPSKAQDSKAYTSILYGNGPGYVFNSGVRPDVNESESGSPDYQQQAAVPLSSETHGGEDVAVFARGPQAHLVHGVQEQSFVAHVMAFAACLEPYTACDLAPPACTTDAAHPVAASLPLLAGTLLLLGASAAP
Cytochrome P450 3A4, sequence (P08684 whole entry): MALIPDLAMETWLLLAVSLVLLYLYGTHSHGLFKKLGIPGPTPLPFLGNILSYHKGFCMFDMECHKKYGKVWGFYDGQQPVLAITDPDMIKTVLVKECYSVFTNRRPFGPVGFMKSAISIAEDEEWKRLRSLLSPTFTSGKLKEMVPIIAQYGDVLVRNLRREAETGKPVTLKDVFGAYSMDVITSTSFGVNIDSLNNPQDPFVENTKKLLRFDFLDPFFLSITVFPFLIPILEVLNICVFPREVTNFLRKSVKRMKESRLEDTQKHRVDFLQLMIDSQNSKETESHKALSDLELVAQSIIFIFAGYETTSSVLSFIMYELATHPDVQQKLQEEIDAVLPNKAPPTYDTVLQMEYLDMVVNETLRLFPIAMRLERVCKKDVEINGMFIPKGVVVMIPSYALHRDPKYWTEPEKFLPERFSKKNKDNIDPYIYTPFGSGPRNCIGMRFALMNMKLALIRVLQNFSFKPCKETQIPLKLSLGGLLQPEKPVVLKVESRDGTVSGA

Take `Cc1ccc(S(=O)(=O)NCCC(=O)NNC(=O)COc2ccc(Br)cc2)cc1C`: the EC50 in series [1] was 16 µM (active); in series [3] it was 16.4 µM (active); in [4], 11.5 µM (active). In addition, in series [2], the IC50 was 89.4 µM (active).
On to `CC(=O)c1ccc(N2CCN(S(=O)(=O)c3ccc4c(c3)CCN4C(C)=O)CC2)cc1`, for which the IC50 on Tumor necrosis factor is 13.2 µM (active); in the series on HEK293, > 20 µM (inactive).
On to `Cc1ccc(C(=O)CNc2ccc(C)c(Cl)c2)cc1`, for which the half-inhibitory concentration (IC50) in [5] was > 100 µM (active); in [6], 5.43 µM (active). In addition, the EC50 on Beta-galactosidase is > 40 µM (inactive).
With `C#Cc1cccc(NC(=O)CSc2nnc(-c3ccc(C(F)(F)F)cn3)o2)c1`, the AC50 in the series on A-375 [7] and with A-375 [8] was > 11 µM (active) each time.
Take `CCN1CCc2nc(NC(=O)CC(c3ccccc3)c3ccccc3)sc2C1`: the AC50 result is “inconclusive” at Cytochrome P450 3A4 and 15.8 µM (inconclusive) at Cytochrome P450 1A2. Further, the IC50 in series [9] was 9.25 µM (active).
As for `CCOc1cccc(/C=C/c2ccc3cccc(O)c3n2)c1OC`, the EC50 is 4.48 µM (active) in series [10], 27.7 µM (active) in series [11], 2.48 µM (active) in [13] and > 40 µM (inactive) on Beta-galactosidase. The AC50 in series [12] was 26 µM (active). In addition, the IC50 in [6] was 16.6 µM (active).
In the case of `COc1cc(CNC2CCCC2)cc(Cl)c1OCc1ccccc1Cl`, the EC50 in series [10] was 13.8 µM (active); in [15], 12.1 µM (active); in [13] it was 1.17 µM (active); in [20], 14.6 µM (active). Also, the AC50 in series [14] is 17.7 µM (active); with INS1, 7.36 µM (active); in series [17], 5.89 µM (active); in the series on A-375 [7], 17.5 µM (active). For the same molecule, the CC50 is 19.1 µM (active) in series [16], > 20 µM (active) in [18] and 18.3 µM (active) in series [19]. The IC50 in “cells” is 16.8 µM (active).
With `COc1ccc(C[C@H]2CN3C(=NC[C@@H]3C(C)C)N2CCNC(=O)c2ccc(C)c(Br)c2)cc1`, the IC50 in series [21] was > 20 µM (inactive). Moreover, in the series with A-375 [8], the AC50 is 34.3 µM (active).

The term EC50 denotes the midpoint of the concentration-response curve. Usually IC50 stands for the concentration needed to halve the response being measured. The AC50 is the concentration giving half of the maximal activity seen. One may read the CC50 as the concentration at which the toxic effect on the cells reaches its halfway point.
